Consider 23 molecules from patent publication US20210261583A1, “Synthetic Cytotoxic Molecules, Drugs, Methods of Their Synthesis and Methods of Treatment” (The Regents of the University of California, priority 2018, published 2021).

A word on the IC50: it is the concentration needed to halve the response being measured. A higher IC50 goes with weaker potency in that assay. The term inhibition denotes the drop in the measured response relative to a control, in per cent.

The test system of one series is cancer cells. Kind of series: Cytotoxicity (IC50). The series is classed as cell-based.
A further series relates to CD98. The series is described as follows: Nutrient transporter (CD98) down-regulation. The series is classed as cell-based. As to conditions: for activity in downregulation tests: compared to hydroxy pyrrolidine ketone progenitors 20, 21, 23 and 24.
Series [1] is described as follows: Racemization/epimerization, deuterium incorporation and cyclization in protic solvents. It is filed as physicochemical. As to conditions: for time to complete incorporation of deuterium at C-2: D2O, room temperature; for racemization / epimerization after N-Boc deprotection: dissolved in protic solvents such as water and MeOH, gives 1:1 mixture of enantiomers or epimers. As for the experimental part:
In the presence of D2O at room temperature, deuterium was incorporated at C-2 confirming a fast enolization followed by β-elimination and ring closure. […] The incorporation of deuterium is complete in 30 min at pH=10, and in 3 hours at pH=7.
It was therefore decided to further investigate this new structural analog and we prepared the bicyclic enantiopure pyrrolizidine 17 bearing the aryloctyl appendage on C-3, in analogy with our lead compound 3 as well as the monocyclic variant 18, to check the effect of the substituent position and the nature of the azacycles (FIG. 7).

The next series has as its system vacuolation. Kind of series: Vacuolation score. The series is classed as cell-based. As to conditions: for activity in vacuolation tests: compared to hydroxy pyrrolidine ketone progenitors 20, 21, 23 and 24.
The mark [2] stands for this setting: at concentration near IC50 / where it kills 50% of cells.

Structures can show the parent of a compound that is named as a salt. Where two headings read alike, the source gives them in different places.

In the case of `CCCCCCCCc1ccc(C(=O)C[C@H]2C[C@H](CO)CN2)cc1.Cl` (mixture of isomers) [Compound 12, 2-((2R,4S)-4-(Hydroxymethyl)pyrrolidin-2-yl)-1-(4-octylphenyl)ethan-1-one hydrochloride], the IC50 in the series with cancer cells is 2 µM. Also, the inhibition at 2.5 µM in the series with CD98 (2.5 μM) turned out to be 44%. Also, the inhibition at 10 µM in the series with CD98 (10 μM) was 50%. Also, the figures for the “time to complete incorporation of deuterium at C-2” value in series [1] (pH=7) and in series [1] (pH=10) were 3 h and 0.5 h, respectively. For the same molecule, the “racemization / epimerization after N-Boc deprotection” value in series [1] was “prone to racemization and epimerization”. In series [1] (pH≤3 in H2O), the stability to epimerization entry is “stable only in very acidic conditions”.
The molecule `CCCCCCCCc1ccc(C(C[C@@H]2CCCN2)OC)cc1.Cl` (single isomer, unassigned) [Compound 10, (2S)-2-(2-Methoxy-2-(4-octylphenyl)ethyl)pyrrolidine hydrochloride] gave a Vacuolation score with vacuolation (2.5 μM) of 0.
Turning to `CCCCCCCCc1ccc(C(C[C@@H]2CCCN2)OC)cc1.Cl` (single isomer, unassigned) [Compound 10, hydrochloride], the concentration for half-maximal inhibition (IC50) with cancer cells was determined as 3 µM. Moreover, in the series with CD98 (2.5 μM), the inhibition at 2.5 µM turned out to be 15%. Further, in the series with CD98 (10 μM), the inhibition at 10 µM stood at 58%.
`CCCCCCCCc1ccc([C@H]2CCN[C@@H]2CO)cc1.Cl` [Compound 3, reference compound]: the IC50 in the series with cancer cells was found to be 2.1 µM. For the same molecule, the “% CD98 down-regulation” value stood at 42% in the series with CD98 (2.5 μM) and 66% in the series with CD98 (10 μM).
With `CCCCCCCCc1ccc(C(=O)C[C@@H]2CCCN2)cc1.Cl` [Compound 8, (S)-1-(4-Octylphenyl)-2-(pyrrolidin-2-yl)ethan-1-one hydrochloride], in the series with cancer cells, the midpoint of inhibition, the IC50, lay at 2.5 µM. Also, the inhibition at 2.5 µM with CD98 (2.5 μM) amounted to 78%. Also, the inhibition at 10 µM in the series on CD98 (10 μM) is 57%. In addition, in series [1], the “racemization / epimerization after N-Boc deprotection” value was “prone to racemization and epimerization”.
In turn, `CCCCCCCCc1ccc(CC[C@@H]2CCCN2)cc1` [Compound 9, (R)-2-(4-Octylphenethyl)pyrrolidine hydrochloride] returned an IC50 in the series with cancer cells of 2.8 µM. Besides, the inhibition at 2.5 µM in the series with CD98 (2.5 μM) stood at 41%. For the same molecule, the inhibition at 10 µM with CD98 (10 μM) turned out to be 63%.
In the series on cancer cells, `CCCCCCCCc1ccc(C(=O)CC[C@H]2C[C@H](CO)CN2)cc1.Cl` [Compound 13, 3-(2S,4S)-4-(Hydroxymethyl)pyrrolidin-2-yl)-1-(4-octylphenyl)propan-1-one hydrochloride] gave an IC50 of 4 µM.
As for `CCCCCCCCc1ccc(C(=O)CC[C@H]2C[C@H](CO)CN2)cc1.Cl` [Compound 13], the “% CD98 down-regulation” value with CD98 (2.5 μM) was 8%; in the series on CD98 (10 μM), 46%. Besides, the Vacuolation score in the series on vacuolation (2.5 μM) was 0.
For `CCCCCCCCc1ccc([C@@H]2CCC3C[C@H](CO)CN32)cc1.Cl` (stereo partly drawn) [Compound 14, ((2S,5S)-5-(4-Octylphenyl)hexahydro-1H-pyrrolizin-2-yl)methanol hydrochloride], the IC50 in the series with cancer cells was 12.4 µM; in the series on cancer cells (hydrochloride), 12.2 µM. For the same molecule, in the series on CD98 (2.5 μM), the inhibition at 2.5 µM was determined as 0%. The inhibition at 10 µM in the series on CD98 (10 μM) amounted to 32%. Besides, in the series on CD98 (40 μM), the inhibition at 40 µM is 68%. Moreover, the Vacuolation score with vacuolation (2.5 μM) and with vacuolation (10 μM) was 0 each time.
In the series with cancer cells, `CCCCCCCCc1ccc(C(=O)CC[C@@H]2C[C@@H](O)CN2)cc1` [Compound 15, (2R,4R)-4-Hydroxy-2-(3-(4-octylphenyl)-3-oxopropyl)pyrrolidin-1-ium chloride] came in with an IC50 of 2.1 µM. In addition, in the series on CD98 (2.5 μM), the inhibition at 2.5 µM amounted to 15%. For the same molecule, in the series on CD98 (10 μM), the inhibition at 10 µM stood at 52%.
The like results for `CCCCCCCCc1ccc(C[C@@H]2C[C@@H](O)CN2)cc1` [Compound 16, (3R,5R)-5-(4-Octylbenzyl)pyrrolidin-3-ol] were, in that order, 2.2 µM, 40% and 63%.
Consider `CCCCCCCCc1ccc(C(=O)[C@@H]2CCCN2)cc1.Cl` [Compound 19, (S)-2-(4-Octylbenzoyl)pyrrolidin-1-ium chloride], for which the inhibition at 2.5 µM in the series with CD98 (2.5 μM) was -21%. The inhibition at 10 µM in the series on CD98 (10 μM) is -4%. In addition, the inhibition at 40 µM with CD98 (40 μM) was 33%. Moreover, the Vacuolation score in the series with vacuolation (2.5 μM) and with vacuolation (10 μM) was 0 each time.
As for `CCCCCCCCc1ccc(C(=O)[C@@H]2C[C@@H](O)CN2)cc1.Cl` [Compound 20, (2S,4R)-4-Hydroxy-2-(4-octylbenzoyl)pyrrolidin-1-ium chloride], 28.1 µM corresponded to half-maximal inhibition in the series with cancer cells (IC50). For the same molecule, the inhibition at 2.5 µM in the series on CD98 (2.5 μM) turned out to be 2%. Besides, the inhibition at 10 µM in the series on CD98 (10 μM) was determined as 9%. Also, the inhibition at 40 µM with CD98 (40 μM) is 48%. In addition, in the series on vacuolation (2.5 μM), the Vacuolation score worked out at 0.
In the case of `CCCCCCCCc1ccc(C(=O)[C@H]2C[C@H](O)CN2)cc1.Cl` [Compound 21, (2R,4S)-4-Hydroxy-2-(4-octylbenzoyl)pyrrolidin-1-ium chloride], inhibition in the series with cancer cells was half-maximal at 15.3 µM (IC50). Besides, the inhibition at 2.5 µM in the series on CD98 (2.5 μM) came out at 12%. Further, the inhibition at 10 µM with CD98 (10 μM) was 51%. Also, the inhibition at 40 µM with CD98 (40 μM) amounted to 41%. In the series with vacuolation (2.5 μM), the Vacuolation score was 0. Further, the “vacuolation (in words)” value in the series on vacuolation (10 μM) is “reached maximum vacuolation”.
In turn, `CCCCCCCCc1ccc(C(=O)[C@H]2C[C@H](CO)CN2)cc1.Cl` [Compound 22, ((2R,4S)-4-(Hydroxymethyl)pyrrolidin-2-yl)(4-octylphenyl)methanone hydrochloride] showed an IC50 in the series on cancer cells of 19.6 µM. The inhibition at 2.5 µM in the series on CD98 (2.5 μM) worked out at 0%. The inhibition at 10 µM with CD98 (10 μM) stood at 19%. For the same molecule, the inhibition at 40 µM in the series with CD98 (40 μM) was found to be 61%. Also, the Vacuolation score with vacuolation (2.5 μM) and in the series with vacuolation (10 μM) was 0 in each case.
The molecule `CCCCCCCCc1ccc(CC(=O)[C@@H]2C[C@@H](O)CN2)cc1.Cl` [Compound 23, (2S,4R)-4-Hydroxy-2-(2-(4-octylphenyl)acetyl)pyrrolidin-1-ium chloride] displayed a concentration for half-maximal inhibition (IC50) with cancer cells of 18.6 µM. Also, the inhibition at 2.5 µM with CD98 (2.5 μM) stood at 13%. Also, the inhibition at 10 µM with CD98 (10 μM) came to 23%. Also, in the series with CD98 (40 μM), the inhibition at 40 µM amounted to 59%. For the same molecule, the Vacuolation score in the series on vacuolation (2.5 μM) and in the series with vacuolation (10 μM) was 0 throughout.
`CCCCCCCCc1ccc(CC(=O)[C@H]2C[C@H](O)CN2)cc1.Cl` [Compound 24, (2R,4S)-4-Hydroxy-2-(2-(4-octylphenyl)acetyl)pyrrolidin-1-ium chloride] came in with an IC50 in the series with cancer cells of 17.1 µM. For the same molecule, the inhibition at 2.5 µM with CD98 (2.5 μM) came out at 11%. Besides, in the series on CD98 (10 μM), the inhibition at 10 µM worked out at 16%. The inhibition at 40 µM with CD98 (40 μM) turned out to be 54%. In addition, the Vacuolation score with vacuolation (2.5 μM) and with vacuolation (10 μM) was 0 each time.
With `CCCCCCCCc1ccc(CC(O)[C@@H]2C[C@@H](O)CN2)cc1` (stereo partly drawn) [Compound 25, (2S,4R)-4-Hydroxy-2-(1-hydroxy-2-(4-octylphenyl)ethyl)pyrrolidin-1-ium chloride], in the series on cancer cells, inhibition was half-maximal at 3 µM (IC50). In addition, the inhibition at 2.5 µM with CD98 (2.5 μM) came out at 19%. For the same molecule, the inhibition at 10 µM with CD98 (10 μM) was 62%.
In the series on cancer cells, `CCCCCCCCc1ccc(CC(O)[C@H]2C[C@H](O)CN2)cc1.Cl` (stereo partly drawn) [Compound 26, (2R,4S)-4-Hydroxy-2-(1-hydroxy-2-(4-octylphenyl)ethyl)pyrrolidin-1-ium chloride] gave an IC50 of 1.8 µM. In addition, the inhibition at 2.5 µM with CD98 (2.5 μM) was 9%. The inhibition at 10 µM with CD98 (10 μM) is 62%. In addition, the nutrient transporter down-regulation entry with CD98 (setting [2]) is “does not down-regulate nutrient transporter proteins”. Also, the Vacuolation score in the series with vacuolation (2.5 μM) is reported as 0. In the series with vacuolation (setting [2]), the vacuolation result was “does not down-regulate nutrient transporter proteins or vacuolate”.
`CCCCCCCCc1ccc(C(=O)[C@@H]2C[C@@H](OP(=O)(O)O)CN2)cc1.Cl` [Compound 29, (2S,4R)-2-(4-Octylbenzoyl)-4-(phosphonooxy)pyrrolidin-1-ium chloride]: it took 12.9 µM to reach half-maximal inhibition in the series on cancer cells (IC50). Besides, the entries for the “% CD98 down-regulation” value with CD98 (10 μM) and in the series on CD98 (40 μM) were 3% and −8%, respectively. The “activity in downregulation tests” value with CD98 was “totally inactive”. The Vacuolation score in the series with vacuolation (2.5 μM), in the series on vacuolation (10 μM) and in the series with vacuolation (40 μM) was 0 each time. Further, the “activity in vacuolation tests” value with vacuolation is “totally inactive”.
In turn, `CCCCCCCCc1ccc(C(=O)[C@@H]2C[C@@H](OP(=O)(O)O)CN2)cc1.Cl` [Compound 30, (2S,4R)-2-(4-Octylbenzoyl)-4-(phosphonooxy)pyrrolidin-1-ium chloride] had an IC50 with cancer cells of 12.8 µM. Besides, the “% CD98 down-regulation” value was −9% in the series with CD98 (10 μM) and −0% with CD98 (40 μM). Also, the “activity in downregulation tests” value with CD98 is “totally inactive”. Besides, the Vacuolation score with vacuolation (2.5 μM), in the series with vacuolation (10 μM) and with vacuolation (40 μM) was 0 each time. In addition, the “activity in vacuolation tests” value in the series with vacuolation was “totally inactive”.
The molecule `CCCCCCCCc1ccc(CC(=O)[C@@H]2C[C@@H](OP(=O)(O)O)CN2)cc1.Cl` [Compound 31, (2S,4R)-2-(2-(4-Octylphenyl)acetyl)-4-(phosphonooxy)pyrrolidin-1-ium chloride] returned an IC50 in the series on cancer cells of 25 µM. Further, the inhibition at 10 µM in the series on CD98 (10 μM) amounted to 3%. The inhibition at 40 µM with CD98 (40 μM) worked out at 0%. For the same molecule, in the series with CD98, the “activity in downregulation tests” value is “totally inactive”. Besides, the Vacuolation score with vacuolation (10 μM) and in the series with vacuolation (40 μM) was 0 in each case. Moreover, the “activity in vacuolation tests” value in the series with vacuolation was “totally inactive”.
In the series on cancer cells, `CCCCCCCCc1ccc(CC(=O)[C@H]2C[C@H](OP(=O)(O)O)CN2)cc1.Cl` [Compound 32, (2R,4S)-2-(2-(4-Octylphenyl)acetyl)-4-(phosphonooxy)pyrrolidin-1-ium chloride] came in with an IC50 of 25.3 µM. Also, in the series on CD98 (10 μM), the inhibition at 10 µM came out at 5%. Further, in the series with CD98 (40 μM), the inhibition at 40 µM turned out to be 8%. Moreover, the “activity in downregulation tests” value in the series on CD98 is “totally inactive”. Besides, the Vacuolation score with vacuolation (10 μM) and in the series with vacuolation (40 μM) was 0 each time. Besides, the “activity in vacuolation tests” value with vacuolation is “totally inactive”.
